Structures can show the parent of a compound that is named as a salt.

One assay has as its system SK-MEL-28 cells. As to the kind of experiment: Cytotoxicity in low glucose condition (MTT). In kind it is cell-based. The following applies: Homo sapiens, SK-MEL-28, 0.75 mM glucose, 72 hours, read-out: SK-MEL-28 0.75 mM glucose Cell viability (IC50 ia). An excerpt:
The inhibition of oxidative phosphorylation (OXPHOS) is not cytotoxic to cells in normal glucose condition, because it is postulated that normal cells have compensatory mechanism under energy stress conditions such as low glucose. However OXPHOS inhibitors show cytotoxic effect on cells in the glucose deprived condition (BirsoyK, 2014). The glucose deprived condition is observed in tumor microenvironment potentially due to poor angiogenesis. Therefore the OXPHOS inhibitors may show anti-cancer effect on cancer cells in low glucose condition that may depict tumor microenvironment.
The compounds of the present invention were evaluated their cytotoxicity in SK-MEL-28, melanoma with 0.75 mM glucose supplement. The cytotoxic effect is compared with the cytotoxicity caused by phenformin. The cytotoxicity in low glucose condition is correlated with inhibition of oxygen consumption in mitochondria.
SK-MEL-28 (HTB-72) is a melanoma cell line obtained from ATCC (MA) and cultured in RPMI 1640 media (Lifetechnologies, CA) with supplement of 10% FBS and antibiotic-antimycotic (Lifetechnologies, CA). RPMI 1640 (-Glucose) was used to prepare low glucose media and 0.75 mM glucose was supplied with D-(+)-glucose solution from Sigma. SK-MEL-28 cells were separated from culture plate using 0.5% trypsin-EDTA and 5,000 cells were plated in 96-well plate with low glucose media. After incubation at 37° C. for 24 hour, 5% CO2, the cells were treated with the compounds of present invention in FBS-free media for 72 hours. The cytotoxicity was measured by the MTT (AMRESCO, OH) assay. NADH-dependent cellular oxidoreductase reduces MTT to its insoluble […] with purple color. The enzyme depends on cell number or energy state of cells. 10 μl of 5 mg/ml MIT solution was added to each well of the assay plate and skip the well for blank. The plate was incubated at 37° C. and 5% CO2 for 2 hours. The MTT solution was removed from each well and 100 μl of DMSO was added. The plate was read by VICTOR X3 Multilabel Counter at the wavelength of 550 nm. In Table 2, the levels of IC50 are evaluated by the following criteria.
With `N=C(N)NCc1c(F)cc(F)cc1F` [Example 153, 1-(2,4,6-trifluorobenzyl)guanide hydrochloride], the IC50 – broadly, the concentration at which inhibition is half-maximal – was more than 10 µM.

With `COc1cc(I)ccc1CCNC(=N)NC(=N)N` [Example 79, N-1-(2-methoxy-4-iodo)phenethylbiguanide hydrochloride], the IC50 lay within 5 to 10 µM.

Regarding `CNC(=N)NC(=N)NCCc1ccccc1` [Example 124, N-1-methyl-N-5-phenethylbiguanide hydrochloride], the IC50 is more than 10 µM.

As for `C/N=C(\NC)NC(=N)NCCc1ccc(Cl)c(Cl)c1` [Example 132, N-1-methyl-N-2-methyl-N-5-(3,4-dichloro)phenethylbiguanide hydrochloride], the half-maximal inhibitory concentration (IC50) was more than 10 µM.

With `CONC(=N)NC(=N)NCCc1ccc(Cl)c(Cl)c1` [Example 129, N-1-methoxy-N-5-(3,4-dichloro)phenethylbiguanide hydrochloride], the IC50 was more than 10 µM.

The subject of a further assay is A549 cells. Briefly: Inhibition of OCR (XF Analyzer). In kind it is cell-based. Particulars: Homo sapiens, A549, 24 h. An excerpt:
The electron transfer complex in mitochondria is composed of 5 complexes. The complex I accept electrons from NADH produced from glycolysis and TCA cycle and the electrons move to complex […] and the electron is finally transferred to O2 and water molecule is generated. During the electron transfer, proton gradient is generated and the chemical gradient is a driving source to synthesize ATP at complex V. The mitochondrial inhibition of complex I indirectly assessed by measuring the oxygen consumption rate (OCR) at complex IV. […] The solution outside of cells becomes acidic (lower pH) as lactate is transported to outside of cells. OCR and Extracellular acidification rate (ECAR) are determined by XF Analyzer (Seahorse Biosciences).
A549 cells were purchased from American Type Tissue Culture Collection ([…]) and cultured in RPMI 1640 supplied with 10% fetal bovine serum (FBS) and antibiotic-antimycotic (Lifetech, CA). A549 cells were separated with 0.5% Trypsin-EDTA and 3,000 cells were plated on 1 mg/ml poly-D-lysine (Sigma, P6407) coated XF 96 well […]. A549 cells were allowed to adhere to the wells for 24 hours under the condition of temperature, 37° C. and 5% CO2 The sensor cartridge of XF Analyzer was soaked in 200 Ad of Calibrant solution (Seahorse, MA) in a clear 96-well plate at 37° C. for 24 hours. The compounds of the present invention were diluted with RPMI 1640 without FBS, transferred to A549 cells on XF 96 well plate, and incubated further for 23 hours at 37° C. and 5% CO2. After incubation, the compound solution was exchanged with pre-warmed and pH adjusted (pH7.4) XF assay media (Seahorse) supplied with 15 mM D-glucose (Sigma), 15 mM sodium pyruvate (Lifetechnologies, CA) and 4 mM L-glutamine (Lifetechnologies, CA). The compounds of present invention were prepared in XF Assay media and added to the assay plate. The assay plate was equilibrated in XF Analyzer for 1 hour, and the reading were started by sensor cartridge. The cytotoxicity assay was followed using Cyquant (Lifetechnologies, CA) in order to calibrate the inhibition with cytotoxicity of compounds. The concentrations of the compounds were tested at […] and IC50 value was obtained from the inhibited values. That is, from OCR inhibition values at each concentration of the compound, IC50 was calculated according to Prism's dose response curve fitting.
In Table 1, the levels of OCR IC50 are evaluated by the following.
`N=C(N)NCc1c(F)cc(F)cc1F` [Example 153, 1-(2,4,6-trifluorobenzyl)guanide hydrochloride] returned an IC50 of more than 5 µM.

Compound `COc1cc(I)ccc1CCNC(=N)NC(=N)N` [Example 79, N-1-(2-methoxy-4-iodo)phenethylbiguanide hydrochloride] displayed an IC50 of less than 2 µM.

The compound `Cc1ccc(CNC(=N)N)cc1` [Example 151, 1-(4-methylbenzyl)guanide hydrochloride] had an IC50 of more than 5 µM.

As to `Cc1ccc(CCNC(=N)N)c(C)c1` [Example 155, 1-(2,4-dimethylphenethyl)guanide hydrochloride], the IC50 was less than 2 µM.

The compound `N=C(N)NC(=N)NCCc1ccc(Br)c(Cl)c1` [Example 73, N-1-(4-bromo-3-chloro)phenethylbiguanide hydrochloride] registered an IC50 of 2 to 5 µM.

Turning to `N=C(N)NCCc1cccc(F)c1` [Example 178, 1-(3-fluorophenethyl)guanide hydrochloride], the concentration for half-maximal inhibition (IC50) is more than 5 µM.

`N=C(N)NCCC1CC1` [Example 190, 1-(2-cyclopropylethyl)guanide hydrochloride] showed an IC50 of 2 to 5 µM.

Compound `CN(CCCc1ccccc1)C(=N)N` [Example 188, 1-methyl-1-(3-phenylpropyl)guanide hydrochloride] gave an IC50 of more than 5 µM.

As to `CC(C)c1ccc(CCNC(=N)NC(=N)N)cc1` [Example 14, N-1-(4-isopropyl)phenethylbiguanide hydrochloride], the IC50 was more than 5 µM.

The compound `N=C(N)NC1Cc2ccccc2C1` [Example 137, 1-(2,3-dihydro-1H-inden-2-yl)guanide hydrochloride] gave an IC50 of 2 to 5 µM.

`N=C(N)NCc1ccc(-c2ccccc2)cc1` [Example 200, N-(4-phenyl)benzyl guanide hydrochloride] had an IC50 of 2 to 5 µM.

In turn, `N=C(N)NCCc1ccc(CCc2ccccc2)cc1` [Example 187, 1-(4-phenethylphenethyl)guanide hydrochloride] returned an IC50 of more than 5 µM.

Turning to `COc1ccc(CCCNC(=N)N)cc1` [Example 185, 1-(3-(4-methoxyphenyl)propyl)guanide hydrochloride], the IC50 was more than 5 µM.

Regarding `Cc1cc(CCNC(=N)N)ccc1Cl` [Example 206, 1-(4-chloro-3-methylphenthyl)guanide hydrochloride], the IC50 is less than 2 µM.

In turn, `N=C(N)NCCc1cccc2c1CCCC2` [Example 192, hydrochloride] yielded a concentration for half-maximal inhibition (IC50) of 2 to 5 µM.

As for `Cc1ccc(CCNC(=N)N)cc1` [Example 138, 1-(4-methylphenethyl)guanide hydrochloride], the IC50 is 2 to 5 µM.

`N=C(N)NCc1ccc(Oc2ccccc2)cc1` [Example 203, 1-(4-phenoxybenzyl) guanide hydrochloride] displayed an IC50 of 2 to 5 µM.

Regarding `N=C(N)NC(=N)NCCc1ccccc1F` [Example 9, N-1-(2-fluoro)phenethylbiguanide hydrochloride], the IC50 was more than 5 µM.

As for `Cc1ccc(CCNC(=N)NC(=N)N)cc1` [Example 10, N-1-(4-methyl)phenethylbiguanide hydrochloride], the IC50 was more than 5 µM.

As to `N=C(N)NC(=N)NCCCc1ccc(C2CC2)cc1` [Example 47, N-1-1-(3-(4-cyclopropylphenyl)propyl)biguanide hydrochloride], the IC50 was more than 5 µM.

Turning to `N=C(N)NC(=N)NCCC1CCCCC1` [Example 32, N-1-2-cyclohexylethylbiguanide hydrochloride], the IC50 is more than 5 µM.

Compound `N=C(N)NC(=N)NCc1ccc2ccccc2c1` [Example 45, hydrochloride] yielded an IC50 of 2 to 5 µM.

`N=C(N)NCCCc1ccccc1` [Example 165, 1-(3-phenylpropyl)guanide hydrochloride] registered an IC50 of 2 to 5 µM.

In turn, `Cc1cc(CNC(=N)N)ccc1Br` [Example 207, 1-(4-bromo-3-methylbenzyl) guanide hydrochloride] displayed an IC50 of more than 5 µM.

Consider `N=C(N)NCCc1ccc(Cl)c(Cl)c1` [Example 140, 1-(3,4-dichlorophenethyl)guanide hydrochloride], for which the IC50 lay in the range of 2 to 5 µM.

`N=C(N)NCc1ccc2ccccc2c1` [Example 198, 11-(naphthalen-2-ylmethyl)guanide hydrochloride] registered an IC50 of 2 to 5 µM.

On to `CN(CCc1ccc(F)cc1)C(=N)N` [Example 174, 1-(4-fluorophenethyl)-1-methyl guanide hydrochloride], for which the IC50 is more than 5 µM.

`N=C(N)NC(=N)NCCc1ccc(CCc2ccccc2)cc1` [Example 27, N-1-(4-phenethyl)phenethylbiguanide hydrochloride] registered an IC50 of 2 to 5 µM.

`N=C(N)NC(=N)NCc1ccc(Oc2ccccc2)cc1` [Example 56, N-1-(4-phenoxy)benzylbiguanide hydrochloride] gave an IC50 of more than 5 µM.

Regarding `N=C(N)NC(=N)NCc1cccc(Cl)c1` [Example 41, N-1-(3-chloro)benzylbiguanide hydrochloride], the IC50 is more than 5 µM.

Regarding `N=C(N)NC(=N)NCc1cccc2ccccc12` [Example 31, hydrochloride], the IC50 is more than 5 µM.

For `CCCNC(=N)NC(=N)NCCc1ccc2c(c1)CCCC2` [Example 127, N-1-propyl-N-5-(2-(5,6,7,8-tetrahydronaphthalen-2-yl)ethyl) biguanide hydrochloride], the IC50 was more than 5 µM.

Compound `Cc1ccc(CNC(=N)NC(=N)N)cc1C` [Example 28, N-1-(3,4-dimethyl)benzylbiguanide hydrochloride] registered an IC50 of 2 to 5 µM.

In turn, `N=C(N)NC(=N)NCCc1ccc(Cl)cc1Cl` [Example 4, N-1-(2,4-dichloro)phenethylbiguanide hydrochloride] showed a half-inhibitory concentration (IC50) of 2 to 5 µM.

Regarding `Cc1ccc(CCNC(=N)NC(=N)N)c(C)c1` [Example 16, N-1-(2,4-dimethyl)phenethylbiguanide hydrochloride], the IC50 was 2 to 5 µM.

Consider `C[C@H](CNC(=N)N)c1ccccc1` [Example 175, (S)-1-(2-phenylpropyl)guanide hydrochloride], for which the IC50 was more than 5 µM.

Take `COc1cccc(CCNC(=N)NC(=N)N)c1` [Example 8, N-1-(3-methoxy)phenethylbiguanide hydrochloride]: the IC50 lay within 2 to 5 µM.

As for `N=C(N)NCc1ccc(Br)cc1` [Example 184, 1-(4-bromobenzyl)guanide hydrochloride], the IC50 is more than 5 µM.

The record behind these values is patent publication US11465989B2, “Guanidine compounds and use thereof” (IMMUNOMET THERAPEUTICS INC., priority 2014, dated 2022).
